Data taken from patent US20140161748A1, “METHODS FOR TREATING SUN-EXPOSED SKIN” (UNIVERSITY OF MANITOBA, priority 2011, published 2014).

Experiments:
fibroblasts [1] = conditions: UVB and Quetiapine for 48 hours
SKH-1 mice [2] = tested on: SKH-1 mice
Description: (§1) Ten female SKH-1 mice were obtained from Jackson Laboratory. They were 9 weeks old at the start of the experiment.
(§2) Animals were ordered at 7 weeks of age and half were pretreated with quetiapine (10 mg/kg dissolved in drinking water) for two weeks prior to commencement of UV exposure. The other half were left untreated. Quetiapine was obtained in powder form (batch 1677) from Avlon Works, in Bristol, England, a production site for the pharmaceutical company AstraZeneca. All mice were exposed three times a week for a total of 10 weeks. Exposure intensity was 90 mJ/cm and exposure duration was 7.5 minutes. […] Excessive damage to the skin was not the goal of this study. The lamp used was manufactured by UVP (Upland, Calif., model UVLM-28).
(§3) Animals were free moving in a standard cage, with the light positioned about 30 cm above them. The intensity was measured and animals were not placed under the light until it had reached a stable value.
Skin samples were taken from the dorsal region (along the midline of the mouse close to the hindlimbs) of each mouse using a 6 mm dermal biopsy punch.
Three histological stains were used. Each stain was prepared by the histology technician in the Department of Human Anatomy and Cell Science at the University of Manitoba. Hematoxylin and Eosin (H&E) was used to examine skin structure. Van Gieson stain was used to examine collagen structure, and Verhoeff-Van Gieson stain was used to examine both collagen and elastin fibres.
Skin samples from all animals were embedded in paraffin wax blocks using standard techniques and sectioned at a thickness of 5 microns.
Staining with Hematoxylin and Eosin.
Staining with Van Gieson.
Staining with Verhoeff-Van Gieson.

Fibroblast cells = conditions: fibroblasts, doses 0, 0.01, 0.1 and 1 μM
Description: Fibroblast cells were plated at different densities, and exposed to UVC for various time (0 s, 10 s, 60 s and 360 s), then incubated for another 24 h, 48 h or 72 h (PIT). MTT assay was used to evaluate cell viability.

SKH-1 mice [3] = conditions: 10 mg/kg in drinking water; after 2 weeks of UV treatment; vs untreated mice
Description: as §1, §2, §3

fibroblasts [4] = tested on: fibroblasts
Description: (§4) Fibroblasts were exposed to varying intensities of UVB, 0, 20, 40 and 60 mJ/cm^2 and were examined 24, 48 or 72 hours after. […] MMP-1 or matrix metalloproteinase-1 is an enzyme that is involved in the breakdown of the extracellular matrix in normal physiological processes such as embryonic development, reproduction and tissue modeling. It is also responsible for breaking down collagen. proCOL1A1 is one component that makes up a molecule of type 1 collagen, which is found in most connective tissue, including the skin.

proCOL1A1 = conditions: 0.1 μM; UVB 20 mJ/cm^2; compared to UVB control cells
Description: as §4

fibroblasts [5] = tested on: fibroblasts; remark: listed apart in the source
Description: Cultures were examined after 24, 48, and 72 hours after treatment with 0, 0.01, 0.1, 10, or 100 μM of Quetiapine.

[6] = 10 mg/kg in drinking water, UV three times a week for 10 weeks

SMILES: OCCOCCN1CCN(C2=Nc3ccccc3Sc3ccccc32)CC1 [Quetiapine, 2-(2-(4-dibenzo[b,f][1,4]thiazepine-11-yl-1-piperazinyl)ethoxy)ethanol]
- effect on cell death (PI-Hoechst 33342 staining) (fibroblasts [1]): no effect on cell death
- collagen appearance (Van Gieson) (SKH-1 mice [2]; [6]): darker staining and uniform, intact appearance of collagen bands
- elastic fibre number and structure (Verhoeff-Van Gieson) (SKH-1 mice [2]; [6]): better preservation of elastic fibre number and structure
- epidermis thickness (Hematoxylin and Eosin) (SKH-1 mice [2]; [6]): increased thickness in the untreated group compared to control and quetiapine treated animals
- UV induced collagen breakdown and formation of abnormal elastic fibres (summary) (SKH-1 mice [2]; chronically UV exposed mice): appears to prevent UV induced collagen breakdown and the formation of abnormal elastic fibres
- prevention of UVC induced cytotoxicity (Fibroblast cells): did not prevent UVC induced cytotoxicity regardless of the dose given
- skin irritation (SKH-1 mice [3]): less irritation
- skin redness (SKH-1 mice [3]): less redness
- alleviation of UVB induced cell viability (MTT assay) (fibroblasts [4]): not to alleviate UVB induced cell viability
- proCOL1A1 content in cell lysates (proCOL1A1): significantly increase
- cytotoxic effect on fibroblasts (fibroblasts [5]; fibroblast cultures examined 24, 48 and 72 hours after treatment): cytotoxic effect on fibroblasts at high concentrations
- survival at 1, 10, and 100 μM (fibroblasts [5]; fibroblasts, 1, 10 and 100 μM): decreased further
- concentration at which survival started becoming affected (fibroblasts [5]; fibroblasts, 24, 48, 72 hours, 0-100 μM): 0.1 µM
